In brackets after ≈: the same amount, converted by molar mass.
Columns and labels:
E. coli ATCC 25922 = assay: Broth microdilution MIC in CAMHB; assay type: cell-based; conditions: Escherichia coli, ATCC25922; E. coli ATCC 25922; MHB; read-out: Minimum Inhibitory Concentration, E. coli 25922
How it was run: (§1)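 Hyper-permeable or efflux-deficient strains serve to probe outer-membrane penetration. Growth inhibition is scored visually after 16-20 h at 37° C in CAMHB, starting from 2-8×10^5 CFU/mL.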

[1] = test system: K. pneumoniae 848844 producing SHV-11 and KPC-2; assay: Broth microdilution MIC in CAMHB; assay type: cell-based; conditions: Klebsiella pneumoniae, read-out: Minimum Inhibitory Concentration, K. pneumoniae 848844
How it was run: as §1

P. aeruginosa ATCC 35151 = assay: Broth microdilution MIC in CAMHB; assay type: cell-based; conditions: Pseudomonas aeruginosa, ATCC35151; MHB; hyper-permeable strain; read-out: Minimum Inhibitory Concentration, P. aeruginosa ATCC 35151
How it was run: as §1

E. coli AG100 = assay: Broth microdilution MIC in CAMHB; assay type: cell-based; conditions: Escherichia coli; E. coli AG100 (wild-type parent); MHB; read-out: Minimum Inhibitory Concentration, E. coli AG100
How it was run: as §1

P. aeruginosa ATCC 27853 = assay: Broth microdilution MIC in CAMHB; assay type: cell-based; conditions: Pseudomonas aeruginosa, ATCC27853; MHB; read-out: Minimum Inhibitory Concentration, P. aeruginosa ATCC 27853
How it was run: as §1

[2] = test system: K. pneumoniae UMM producing SHV-5 and KPC-2; assay: Broth microdilution MIC in CAMHB; assay type: cell-based; conditions: Klebsiella pneumoniae, read-out: Minimum Inhibitory Concentration, K. pneumoniae UMM
How it was run: as §1

E. coli AG100A = assay: Broth microdilution MIC in CAMHB; assay type: cell-based; conditions: Escherichia coli, read-out: Minimum Inhibitory Concentration, E. coli AG100A
How it was run: as §1

[3] = test system: P. aeruginosa (ΔmexAB-oprM); assay: Broth microdilution MIC in CAMHB; assay type: cell-based; conditions: Pseudomonas aeruginosa, read-out: Minimum Inhibitory Concentration, P. aeruginosa ΔmexAB-OprM
How it was run: as §1

E. coli D22 = assay: Broth microdilution MIC in CAMHB; assay type: cell-based; conditions: Escherichia coli; E. coli D22 (hyper-permeable); MHB; read-out: Minimum Inhibitory Concentration, E. coli D22
How it was run: as §1

[4] = test system: K. pneumoniae SI-117 producing VIM-1; assay: Broth microdilution MIC in CAMHB; assay type: cell-based; conditions: Klebsiella pneumoniae, read-out: Minimum Inhibitory Concentration, K. pneumoniae SI-117
How it was run: as §1

E. coli 901C = assay: Broth microdilution MIC in CAMHB; assay type: cell-based; conditions: Escherichia coli; E. coli 901C (hyper-permeable); MHB; read-out: Minimum Inhibitory Concentration, E. coli 901C
How it was run: as §1

A. baumannii ATCC 19606 = assay: Broth microdilution MIC in CAMHB; assay type: cell-based; conditions: Acinetobacter baumannii, ATCC19606; MHB; read-out: Minimum Inhibitory Concentration, A. baumannii ATCC 19606
How it was run: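 MIC, read by eye, is the lowest compound concentration giving no bacterial growth after 16-20 h at 37° C. Test compounds are serially diluted 2-fold in CAMHB and seeded with 2-8×10^5 CFU/mL of bacteria taken from a 3-5 h shaking culture, following CLSI methods.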

E. coli K12 PBP3 = biological target: T1, E. coli K12 PBP3 (Escherichia coli, UniProt P0AD68); assay: biochemical; assay type: binding
T1 construct: made in house
How it was run: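 A. baumannii PBP2 (2.5 μM) and PBP3 (0.2 μM) were run in 25 mM Tris pH 8.0 buffer with Tween 20; E. coli PBP3 (1.5 μM) and N. gonorrhoeae PBP2 ([…]) in 50 mM Hepes pH 8.0 buffer.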

[5] = Bocillin-FL fluorescence polarization competition binding assay, A. baumannii PBP3; conditions: fluorescence polarization competition binding assay using Bocillin-FL; column 3; read-out: 4. baumannii PBP1a Potency
Source text: Example I: Experimental Method for Penicillin-Binding Protein Binding Assays with Bocillin-FL Via Fluorescence Polarization
To determine the ability of boronic acid-based test PBP inhibitors to bind Penicillin Binding Proteins (PBPs), Bocillin-FL (fluorescently-labeled penicillin V; ThermoFisher Scientific) was used in a fluorescence polarization (FP) competition binding assay to assess inhibitor binding to PBP2, PBP3 or PBP4 from Escherichia coli (K12), PBP3 from Pseudomonas aeruginosa (PA01), PBP1a, PBP2 and PBP3 from Acinetobacter baumannii (ATCC 19606), and PBP2 from Neiserria gonorrheae (FA19). PBPs were cloned and purified as described previously (E. coli PBPs, King, D. T, et al., ACS Infectious Diseases 2015, 1, 175-184; P. aeruginosa PBP3, Han et. al., PNAS 2010, 107 (51), 22002-22007; A. baumannii PBPs, Penwell et. al., Antimicrob. Agents Chemother. 2015, 59 (3), 1680-1689; N. gonorrhoeae PBP2, Singh et. al., J Biol. Chem. 2019, 294 (38), 14020-14032). To establish assay conditions for competition binding, enzyme titration/saturation binding experiments were initially performed. Bocillin-FL was prepared at 0.2 μM in a buffer comprised of 50 mM Hepes (pH 8.0), 300 mM NaCl and 5% (v/v) glycerol for reactions with E. coli, P. aeruginosa and N. gonorrhoeae PBPs, and 25 mM Tris (pH 8.0), 200 mM NaCl and 10% (v/v) glycerol and 0.005% (v/v) Tween 20 for reactions with A. baumannii PBPs. Saturation binding was performed by mixing 40 μl of PBP solutions ranging in concentrations from 0-24 μM with 40 μl of the 0.2 μM Bocillin-FL solution, in individual wells of a black 384-well microplate. FP was measured immediately upon mixing (Excitation, 490 nm; Emission, 520 nm; g-factor, 0.96), using a Cytation3 (BioTek) microplate reader and measured continuously for up to 120 minutes. […] The competition binding assay (80 μl final volume) was validated using beta-lactams and PBPs at final concentrations of: 1.5 μM, E. coli PBP3; 0.75 μM, P. aeruginosa PBP3; 1 μM A. baumannii PBP1a; 2.5 μM A. baumannii PBP2; 0.2 μM A. baumannii PBP3; and […] N. gonorrhoeae PBP2. Bocillin-FL was at 0.1 μM (0.05 μM with A. baumannii PBP1a) and beta-lactam concentrations ranged from 0-1000 μM. […] Bocillin-FL was added and the FP immediately measured for up to 60 minutes (90 minutes for E. coli PBP2). […] The beta-lactam potency was reported as the concentration of beta-lactam required to reduce the amount of PBP bound-Bocillin-FL by 50% (EC50). […] Binding assays for boronic acid PBP inhibitors were performed in an identical fashion for the respective PBPs

P. aeruginosa PBP3 = biological target: T2, P. aeruginosa PBP3 (Pseudomonas aeruginosa, UniProt G3XD46); assay: Bocillin-FL fluorescence polarization competition binding assay, P. aeruginosa PBP3; conditions: fluorescence polarization competition binding assay using Bocillin-FL
T2 construct: made in house
How it was run: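 Inhibitor competition with Bocillin-FL for P. aeruginosa PBP3 was followed by fluorescence polarization on a Cytation3 (BioTek) reader, using g-factor 0.96, 490 nm excitation and 520 nm emission. The enzyme was at 0.75 μM and the probe at 0.1 μM in Hepes/NaCl/glycerol buffer, 80 μl per well. FP was recorded immediately after probe addition for up to 60 minutes. Potency was expressed as EC50, the concentration that reduces bound probe by 50%.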

T1 sequence (P0AD68 1-577): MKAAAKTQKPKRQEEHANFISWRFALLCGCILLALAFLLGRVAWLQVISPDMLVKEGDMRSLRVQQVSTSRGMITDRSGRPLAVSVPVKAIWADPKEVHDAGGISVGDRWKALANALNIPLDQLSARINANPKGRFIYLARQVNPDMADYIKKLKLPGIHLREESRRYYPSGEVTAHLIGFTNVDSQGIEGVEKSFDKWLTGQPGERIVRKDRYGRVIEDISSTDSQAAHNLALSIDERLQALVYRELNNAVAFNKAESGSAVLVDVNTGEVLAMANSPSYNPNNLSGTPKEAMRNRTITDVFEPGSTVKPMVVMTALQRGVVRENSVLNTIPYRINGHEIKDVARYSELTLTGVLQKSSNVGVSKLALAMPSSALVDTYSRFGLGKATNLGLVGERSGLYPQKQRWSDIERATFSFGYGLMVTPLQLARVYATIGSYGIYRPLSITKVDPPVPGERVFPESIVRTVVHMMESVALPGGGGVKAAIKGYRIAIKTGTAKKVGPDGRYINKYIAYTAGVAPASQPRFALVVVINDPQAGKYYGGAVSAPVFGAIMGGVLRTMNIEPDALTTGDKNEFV
T2 sequence (G3XD46 whole entry): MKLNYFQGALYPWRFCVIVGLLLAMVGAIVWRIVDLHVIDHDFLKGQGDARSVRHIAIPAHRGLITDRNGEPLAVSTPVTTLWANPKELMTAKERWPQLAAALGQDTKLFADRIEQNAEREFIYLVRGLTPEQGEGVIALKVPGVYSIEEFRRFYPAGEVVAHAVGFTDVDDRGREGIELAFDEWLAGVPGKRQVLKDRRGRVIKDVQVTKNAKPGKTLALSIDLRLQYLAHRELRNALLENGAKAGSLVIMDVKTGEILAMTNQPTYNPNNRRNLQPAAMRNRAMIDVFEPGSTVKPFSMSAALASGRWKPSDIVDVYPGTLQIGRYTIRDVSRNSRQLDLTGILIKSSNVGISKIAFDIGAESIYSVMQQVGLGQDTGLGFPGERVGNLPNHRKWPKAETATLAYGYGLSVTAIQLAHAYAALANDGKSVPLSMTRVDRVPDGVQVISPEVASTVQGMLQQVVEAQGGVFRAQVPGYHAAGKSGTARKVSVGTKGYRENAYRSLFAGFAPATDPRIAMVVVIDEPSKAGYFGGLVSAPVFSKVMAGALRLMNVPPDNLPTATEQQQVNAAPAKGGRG

## NCCCN1CCN(C(=O)N[C@@H](C(=O)N[C@H]2Cc3ccc(F)c(C(=O)O)c3OB2O)c2ncc(O)cc2F)C(=O)C1=O [Example 16, (R)-3-((R)-2-(4-(3-aminopropyl)-2,3-dioxopiperazine-1-carboxamido)-2-(3-fluoro-5-hydroxypyridin-2-yl)acetamido)-7-fluoro-2-hydroxy-3,4-dihydro-2H-benzo[e][1,2]oxaborinine-8-carboxylic acid]
E. coli ATCC 25922
  MIC: 8 to 16 µg/mL (≈ 13.6 to 27.1 µM)
[1]
  MIC: 32 to 64 µg/mL (≈ 54.2 to 108 µM)
P. aeruginosa ATCC 35151
  MIC: < 0.25 µg/mL
E. coli AG100
  MIC: 8 to 16 µg/mL (≈ 13.6 to 27.1 µM)
P. aeruginosa ATCC 27853
  MIC: 32 to 64 µg/mL (≈ 54.2 to 108 µM)
[2]
  MIC: 32 to 64 µg/mL (≈ 54.2 to 108 µM)
E. coli AG100A
  MIC: 8 to 16 µg/mL (≈ 13.6 to 27.1 µM)
[3]
  MIC: 8 to 16 µg/mL (≈ 13.6 to 27.1 µM)
E. coli D22
  MIC: 2 to 4 µg/mL (≈ 3.39 to 6.78 µM)
[4]
  MIC: 32 to 64 µg/mL (≈ 54.2 to 108 µM)
E. coli 901C
  MIC: 2 to 4 µg/mL (≈ 3.39 to 6.78 µM)
A. baumannii ATCC 19606
  MIC: > 128 µg/mL
E. coli K12 PBP3
  EC50: < 30 µM
[5]
  EC50: 30 to 100 µM
P. aeruginosa PBP3
  P. aeruginosa PBP3 Potency: D (D represents a potency <10 μM)

From patent publication US20230114728A1 (Venatorx Pharmaceuticals, Inc., priority 2019, published 2023)
